Laboratory results taken from patent US9725448B2, “Neprilysin inhibitors” (THERAVANCE BIOPHARMA R&D IP, LLC, priority 2011, dated 2017).
pKi: −log10 of the molar value.

target: T1, human NEP (Homo sapiens, UniProt P08473); experiment: In vitro enzyme inhibition assay at human NEP (fluorogenic peptide substrate); assay type: biochemical; conditions: pKi values at human NEP (recombinant), given as ranges
T1 construct: purchased R&D Systems, Minneapolis, Minn; 1182-ZN
Method: The inhibitory activities of compounds at human and rat neprilysin (EC 3.4.24.11; NEP) and human angiotensin converting enzyme (ACE) were determined using in vitro assays as described below.
Recombinant human NEP and recombinant human ACE were obtained commercially (R&D Systems, Minneapolis, Minn., catalog numbers 1182-ZN and 929-ZN, respectively). The fluorogenic peptide substrate Mca-D-Arg-Arg-Leu-Dap-(Dnp)-OH (Medeiros et al. (1997) Braz. J. Med. Biol. Res. 30:1157-62; Anaspec, San Jose, Calif.) and Abz-Phe-Arg-Lys(Dnp)-Pro-OH (Araujo et al. (2000) Biochemistry 39:8519-8525; Bachem, Torrance, Calif.) were used in the NEP and ACE assays respectively.
The assays were performed in 384-well white opaque plates at 37° C. using the fluorogenic peptide substrates at a concentration of 10 μM in Assay Buffer (NEP: 50 mM HEPES, pH 7.5, 100 mM NaCl, 0.01% polyethylene glycol sorbitan monolaurate (Tween-20), […]; ACE: 50 mM HEPES, pH 7.5, 100 mM NaCl, 0.01% Tween-20, 1 μM ZnSO4).
Test compounds were assayed over the range of concentrations from 10 μM to 20 pM. Test compounds were added to the enzymes and incubated for 30 minute at 37° C. prior to initiating the reaction by the addition of substrate. Reactions were terminated after 20 minutes of incubation at 37° C. by the addition of glacial acetic acid to a final concentration of 3.6% (v/v).
Plates were read on a fluorometer with excitation and emission wavelengths set to 320 nm and 405 nm, respectively. Inhibition constants were obtained by nonlinear regression of the data using the equation (GraphPad Software, Inc., San Diego, Calif.): ν=ν0/[1+(I/K′)] where ν is the reaction rate, ν0 is the uninhibited reaction rate, I is the inhibitor concentration and K′ is the apparent inhibition constant.
Compounds of the invention were tested in this assay and found to have pKi values at human NEP as follows.

T1 sequence (P08473 52-750 limits assumed): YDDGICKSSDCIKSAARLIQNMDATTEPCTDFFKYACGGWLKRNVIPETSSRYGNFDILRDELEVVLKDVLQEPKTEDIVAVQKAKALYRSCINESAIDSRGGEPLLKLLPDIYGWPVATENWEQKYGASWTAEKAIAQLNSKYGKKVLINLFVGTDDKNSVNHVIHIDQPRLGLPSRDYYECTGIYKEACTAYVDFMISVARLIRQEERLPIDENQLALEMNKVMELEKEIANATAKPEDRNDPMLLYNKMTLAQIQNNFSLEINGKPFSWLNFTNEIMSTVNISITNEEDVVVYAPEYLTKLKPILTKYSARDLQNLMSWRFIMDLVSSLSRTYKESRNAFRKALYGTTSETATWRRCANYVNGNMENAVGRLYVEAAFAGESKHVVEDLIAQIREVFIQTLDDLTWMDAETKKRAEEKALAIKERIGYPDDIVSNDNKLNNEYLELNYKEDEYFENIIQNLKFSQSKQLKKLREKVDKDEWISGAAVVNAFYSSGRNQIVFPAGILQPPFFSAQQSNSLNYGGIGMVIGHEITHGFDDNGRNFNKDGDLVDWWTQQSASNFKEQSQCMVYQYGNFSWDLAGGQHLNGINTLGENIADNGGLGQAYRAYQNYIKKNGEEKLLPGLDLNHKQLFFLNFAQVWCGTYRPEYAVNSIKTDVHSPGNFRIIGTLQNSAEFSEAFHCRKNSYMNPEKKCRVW

Compound | pKi
C[C@@](O)(CN(Cc1ccc(-c2cccc(F)c2)cc1)NC(=O)c1cc(O)no1)C(=O)O [Example 7-20, (R)-3-[N-(3′-Fluorobiphenyl-4-ylmethyl)-N′-(3-hydroxy-isoxazole-5-carbonyl)-hydrazino]-2-hydroxy-2-methyl-propionic acid] | 8.00 to 8.90
CNC(=O)c1cc(C(=O)N[C@H](Cc2ccc(-c3ccccc3)cc2)CC(C)(C)C(=O)O)[nH]n1 [Example 9-12, (R)-5-Biphenyl-4-yl-2,2-dimethyl-4-[(5-methylcarbamoyl-2H-pyrazole-3-carbonyl)-amino]-pentanoic acid] | 7.00 to 7.90
COCCN(C)C(=O)c1cc(C(=O)N[C@H](Cc2ccc(-c3ccccc3)cc2)CC(C)(C)C(=O)O)[nH]n1 [Example 9-15, (R)-5-Biphenyl-4-yl-4-({5-[(2-methoxy-ethyl)-methyl-carbamoyl]-2H-pyrazole-3-carbonyl}-amino)-2,2-dimethyl-pentanoic acid] | 8.00 to 8.90
CC(O)(C[C@@H](Cc1ccc(-c2ccccc2)cc1)NC(=O)c1n[nH]c(Cl)n1)C(=O)O (stereo partly drawn) [Example 2-3, (R)-5-Biphenyl-4-yl-4-[(5-chloro-2H-[1,2,4]triazole-3-carbonyl)-amino]-2-hydroxy-2-methyl-pentanoic acid] | 7.00 to 7.90
C[C@@](O)(CN(Cc1ccc(-c2cc(Cl)ccc2Cl)cc1)NC(=O)c1cc(O)no1)C(=O)O [Example 7-19, (R)-3-[N-(2′,5′-Dichlorobiphenyl-4-ylmethyl)-N′-(3-hydroxy-isoxazole-5-carbonyl)-hydrazino]-2-hydroxy-2-methyl-propionic acid] | ≥ 9.00
O=C(N[C@H](Cc1ccc(-c2ccccc2)cc1)CC1(C(=O)O)CC1)c1cc(C(=O)O)[nH]n1 [Example 10A, 5-[(R)-2-Biphenyl-4-yl-1-(1-carboxy-cyclopropylmethyl)-ethylcarbamoyl]-2H-pyrazole-3-carboxylic acid] | ≥ 9.00
CC(C)(C[C@@H](Cc1ccc(-c2ccccc2)cc1)NC(=O)c1cc(C(=O)NCCc2c[nH]cn2)n[nH]1)C(=O)O [Example 9-17, (R)-5-Biphenyl-4-yl-4-({5-[2-(1H-imidazol-4-yl)-ethylcarbamoyl]-2H-pyrazole-3-carbonyl}-amino)-2,2-dimethyl-pentanoic acid] | 7.00 to 7.90
C[C@](O)(C[C@@H](Cc1ccc(-c2ccccc2)cc1)NC(=O)c1cnc2nn[nH]c2c1)C(=O)O [Example 2-6, (2S,4R)-5-Biphenyl-4-yl-2-hydroxy-2-methyl-4-[(1H-[1,2,3]triazolo[4,5-b]pyridine-6-carbonyl)-amino]-pentanoic acid] | 7.00 to 7.90
CC(O)(CN(Cc1ccc(-c2ccccc2)cc1)NC(=O)c1nnc(Cl)[nH]1)C(=O)O (stereo not shown) [Example 4-2, 3-[N-Biphenyl-4-ylmethyl-N′-(5-chloro-4H-[1,2,4]triazole-3-carbonyl)-hydrazino]-2-hydroxy-2-methyl-propionic acid] | 6.00 to 6.90
C[C@@](O)(CN(Cc1ccc(-c2cccc(Cl)c2)cc1)NC(=O)c1cc(-c2cnccn2)n[nH]1)C(=O)O [Example 7-8, (R)-3-[N-(3′-Chlorobiphenyl-4-ylmethyl)-N′-(5-pyrazin-2-yl-2H-pyrazole-3-carbonyl)-hydrazino]-2-hydroxy-2-methyl-propionic acid] | 7.00 to 7.90
CC(C)(C[C@@H](Cc1ccc(-c2ccccc2)cc1)NC(=O)c1nc(O)n[nH]1)C(=O)O [Example 9-3, (R)-5-Biphenyl-4-yl-4-[(5-hydroxy-2H-[1,2,4]triazole-3-carbonyl)-amino]-2,2-dimethyl-pentanoic acid] | 8.00 to 8.90
CC(C)(C[C@@H](Cc1ccc(-c2ccccc2)cc1)NC(=O)c1cc(C(=O)N2CCOCC2)n[nH]1)C(=O)O [Example 9-8, (R)-5-Biphenyl-4-yl-2,2-dimethyl-4-{[5-(morpholine-4-carbonyl)-2H-pyrazole-3-carbonyl]-amino}-pentanoic acid] | 7.00 to 7.90
CC(O)(C[C@@H](Cc1ccc(-c2ccccc2)cc1)NC(=O)c1nc[nH]n1)C(=O)O (stereo partly drawn) [Example 2-2, (R)-5-Biphenyl-4-yl-2-hydroxy-2-methyl-4-[(2H-[1,2,4]triazole-3-carbonyl)-amino]-pentanoic acid] | 7.00 to 7.90
C[C@@](O)(CN(Cc1ccc(-c2cc(Cl)ccc2F)cc1)NC(=O)c1nnn[nH]1)C(=O)O [Example 7-23, (R)-3-[N-(5′-Chloro-2′-fluorobiphenyl-4-ylmethyl)-N′-(1H-tetrazole-5-carbonyl)-hydrazino]-2-hydroxy-2-methyl-propionic acid] | 8.00 to 8.90
Cc1ccc(Cl)cc1-c1ccc(CN(C[C@@](C)(O)C(=O)O)NC(=O)c2nnn[nH]2)cc1 [Example 7-24, (R)-3-[N-(5′-Chloro-2′-methyl-biphenyl-4-ylmethyl)-N′-(1H-tetrazole-5-carbonyl)-hydrazino]-2-hydroxy-2-methyl-propionic acid] | 8.00 to 8.90
CN(C)C(=O)c1cc(C(=O)NN(Cc2ccc(-c3cccc(Cl)c3)cc2)C[C@@](C)(O)C(=O)O)[nH]n1 [Example 7-9, (R)-3-[N-(3′-Chlorobiphenyl-4-ylmethyl)-N′-(5-dimethylcarbamoyl-2H-pyrazole-3-carbonyl)-hydrazino]-2-hydroxy-2-methyl-propionic acid] | 7.00 to 7.90
COc1ccccc1-c1ccc(CN(C[C@@](C)(O)C(=O)O)NC(=O)c2cc(O)no2)cc1 [Example 7-14, (R)-2-Hydroxy-3-[N′-(3-hydroxy-isoxazole-5-carbonyl)-N-(2′-methoxy-biphenyl-4-ylmethyl)-hydrazino]-2-methyl-propionic acid] | 8.00 to 8.90
C[C@@](O)(CN(Cc1ccc(-c2cc(Cl)ccc2F)cc1)NC(=O)c1cc(O)no1)C(=O)O [Example 6A, (R)-3-[N-(5′-Chloro-2′-fluorobiphenyl-4-ylmethyl)-N′-(3-hydroxy-isoxazole-5-carbonyl)-hydrazino]-2-hydroxy-2-methyl-propionic acid] | ≥ 9.00
Cc1ccc(Cl)cc1-c1ccc(CN(C[C@@](C)(O)C(=O)O)NC(=O)c2cc(O)no2)cc1 [Example 7-12, (R)-3-[N-(5′-Chloro-2′-methyl-biphenyl-4-ylmethyl)-N′-(3-hydroxy-isoxazole-5-carbonyl)-hydrazino]-2-hydroxy-2-methyl-propionic acid] | ≥ 9.00
O=C(N[C@H](Cc1ccc(-c2ccccc2)cc1)CC1(C(=O)O)CC1)c1cc(O)no1 [Example 11-5, 1-{(R)-3-Biphenyl-4-yl-2-[(3-hydroxy-isoxazole-5-carbonyl)-amino]-propyl}-cyclopropanecarboxylic acid] | ≥ 9.00
C[C@@](O)(C[C@@H](Cc1ccc(-c2ccccc2)cc1)NC(=O)c1cnn[nH]1)C(=O)O [Example 1B, (2R,4R)-5-Biphenyl-4-yl-2-hydroxy-2-methyl-4-[(3H-[1,2,3]triazole-4-carbonyl)-amino]-pentanoic acid] | 8.00 to 8.90
CC(C)(C[C@@H](Cc1ccc(-c2ccccc2)cc1)NC(=O)c1cc(C(=O)N2CCC(O)CC2)n[nH]1)C(=O)O [Example 9-10, (R)-5-Biphenyl-4-yl-4-{[5-(4-hydroxy-piperidine-1-carbonyl)-2H-pyrazole-3-carbonyl]-amino}-2,2-dimethyl-pentanoic acid] | 7.00 to 7.90
CC(O)(C[C@@H](Cc1ccc(-c2ccccc2)cc1)NC(=O)c1cc(F)c2nn[nH]c2c1)C(=O)O (stereo partly drawn) [Example 2-4, (R)-5-Biphenyl-4-yl-4-[(7-fluoro-3H-benzotriazole-5-carbonyl)-amino]-2-hydroxy-2-methyl-pentanoic acid] | 8.00 to 8.90
C[C@@](O)(CN(Cc1ccc(-c2cccc(Cl)c2)cc1)NC(=O)c1c[nH]c(=O)o1)C(=O)O [Example 7-21, (R)-3-[N-(3′-Chlorobiphenyl-4-ylmethyl)-N′-(2-oxo-2,3-dihydro-oxazole-5-carbonyl)-hydrazino]-2-hydroxy-2-methyl-propionic acid] | 8.00 to 8.90
CC(O)(C[C@@H](Cc1ccc(-c2ccccc2)cc1)NC(=O)c1cc(O)no1)C(=O)O (stereo partly drawn) [Example 2-7, (R)-5-Biphenyl-4-yl-2-hydroxy-4-[(3-hydroxy-isoxazole-5-carbonyl)-amino]-2-methyl-pentanoic acid] | ≥ 9.00
CC(O)(CN(Cc1ccc(-c2ccccc2)cc1)NC(=O)c1cc(C(=O)O)n[nH]1)C(=O)O (stereo not shown) [Example 4-6, 5-[N′-Biphenyl-4-ylmethyl-N′-(2-carboxy-2-hydroxy-propyl)-hydrazinocarbonyl]-1H-pyrazole-3-carboxylic acid] | 8.00 to 8.90
O=C(N[C@H](Cc1ccc(-c2ccccc2)cc1)CC1(C(=O)O)CC1)c1cnc(O)nc1 [Example 11-8, 1-{(R)-3-Biphenyl-4-yl-2-[(2-hydroxy-pyrimidine-5-carbonyl)-amino]-propyl}-cyclopropanecarboxylic acid] | 8.00 to 8.90
CC(C)(C[C@@H](Cc1ccc(-c2ccccc2)cc1)NC(=O)c1cnn[nH]1)C(=O)O [Example 9-1, (R)-5-Biphenyl-4-yl-2,2-dimethyl-4-[(3H-[1,2,3]triazole-4-carbonyl)-amino]-pentanoic acid] | 8.00 to 8.90
